Starred links: 1 amine or outer side, 2 acyl side, 3 side chain; linkers in the order of their positions; H or OH if unused. Positions of bridges follow the written chain, without caps; N, C: chain ends. Non-standard residues stand in square brackets, D forms with d. Residues, ends and D or L forms follow the SMILES beside them. Groups on a side chain read outwards from the residue. *: point of attachment. Trp(1-Me) = Cn1cc(C[C@H](N)C(=O)O)c2ccccc21; C18 diacid = O=C(O)CCCCCCCCCCCCCCCCC(=O)*; C16 diacid = O=C(O)CCCCCCCCCCCCCCC(=O)*; γGlu = O=C(O)[C@H](CCC(=O)[*:2])N[*:1]; AEEA = NCCOCCOCC(=O)O; Sar = CNCC(=O)O

The first test relates to classical complement pathway. Description: In vitro haemolysis assay (inhibition of classical complement pathway). It counts as cell-based, human. Conditions: Table 5, different residues at position 3 of Ac-IC(1)XWQDWGEHRC(1)T-NH2; read-out: IC50, CP hemolysis. In outline:
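Compound dilutions preincubated 15 min at room temperature with diluted human serum (titrated per batch for 70-90% maximal haemolysis), then antibody-sensitized sheep RBC (10^7/well) added for 30 min at 37 °C in Tris/casein buffer, pH 7.4. Stopped with EDTA; haemolysis read at 405 nm; IC50 by 4PL fit.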
For orientation: IC50 means the point on the concentration scale where inhibition reaches its midpoint. Turning to `CC[C@H](C)[C@H](NC(C)=O)C(=O)N[C@H]1CSSC[C@@H](C(=O)N[C@H](C(N)=O)[C@@H](C)O)NC(=O)[C@H](CCCNC(=N)N)NC(=O)[C@H](Cc2c[nH]cn2)NC(=O)[C@H](CCC(=O)O)NC(=O)CNC(=O)[C@H](Cc2c[nH]c3ccccc23)NC(=O)[C@H](CC(=O)O)NC(=O)[C@H](CCC(N)=O)NC(=O)[C@H](Cc2c[nH]c3ccccc23)NC(=O)[C@H]([C@@H](C)CC)NC1=O` [Compound 2] (Ac-ICIWQDWGEHRCT-NH2; disulfide 2-12), the IC50 is below 100 nM.

The test is the same for the next values; noted with them: human serum, sensitized sheep red blood cells; Table 3, given as upper bounds; read-out: IC50, inhibition of hemolysis.
Consider `CC[C@H](C)[C@@H]1NC(=O)[C@@H](NC(=O)[C@H](Cc2ccccc2)NC(=O)[C@H](CCC(=O)O)NC(=O)[C@H](CO)NC(C)=O)CSSC[C@@H](C(=O)N(C)CC(=O)N[C@@H](CCC(=O)O)C(=O)NCCOCCOCC(=O)NCCOCCOCC(=O)N[C@@H](CCCCNC(=O)CC[C@H](NC(=O)CNC(=O)CC[C@H](NC(=O)CCCCCCCCCCCCCCCCC(=O)O)C(=O)O)C(=O)O)C(N)=O)NC(=O)[C@H](CCCNC(=N)N)NC(=O)[C@H](Cc2c[nH]cn2)NC(=O)[C@H](CCC(=O)O)NC(=O)CN(C)C(=O)[C@H](Cc2c[nH]c3ccccc23)NC(=O)[C@H](CC(=O)O)NC(=O)[C@H](CCC(N)=O)NC(=O)[C@H](Cc2cn(C)c3ccccc23)NC1=O` [Compound 144, Ac-SEFC(1)I[1-Me-Trp]QDW[Sar]EHRC(1)[Sar]E[Peg3][Peg3]-K([17-carboxy-heptadecanoyl][γGlu]G[γGlu])-NH2] (Ac-SEFCI[Trp(1-Me)]QDW[Sar]EHRC[Sar]E[AEEA][AEEA]K([γGlu-Gly-γGlu-C18 diacid])-NH2; disulfide 4-14), for which the IC50 is below 100 nM.

In the case of `CC[C@H](C)[C@@H]1NC(=O)[C@@H](NC(=O)[C@H](Cc2ccc(O)cc2)NC(=O)[C@H](C)NC(=O)[C@H](CO)NC(=O)CNC(=O)[C@H](CCC(=O)O)NC(C)=O)CSSC[C@@H](C(=O)N(C)CC(=O)N[C@@H](CCC(=O)O)C(=O)NCC(=O)N[C@@H](CCCCN)C(=O)N[C@@H](CCCCNC(=O)CC[C@H](NC(=O)CNC(=O)CC[C@H](NC(=O)CCCCCCCCCCCCCCCCC(=O)O)C(=O)O)C(=O)O)C(N)=O)NC(=O)[C@H](CCCNC(=N)N)NC(=O)[C@H](Cc2c[nH]cn2)NC(=O)[C@H](CCC(=O)O)NC(=O)CNC(=O)[C@H](Cc2c[nH]c3ccccc23)NC(=O)[C@H](CC(=O)O)NC(=O)[C@H](CCC(N)=O)NC(=O)[C@H](Cc2cn(C)c3ccccc23)NC1=O` [Compound 110] (Ac-EGSAYCI[Trp(1-Me)]QDWGEHRC[Sar]EGKK([γGlu-Gly-γGlu-C18 diacid])-NH2; disulfide 6-16), the IC50 is below 250 nM. With `CC[C@H](C)[C@H](NC(C)=O)C(=O)N[C@H]1CSSC[C@@H](C(=O)N[C@H](C(=O)N[C@@H](CCC(=O)O)C(=O)NCC(=O)N[C@@H](CCC(=O)O)C(=O)N[C@@H](CCCCNC(=O)COCCOCCNC(=O)COCCOCCNC(=O)CC[C@H](NC(=O)CCCCCCCCCCCCCCC(=O)O)C(=O)O)C(N)=O)[C@@H](C)O)NC(=O)[C@H](CCCNC(=N)N)NC(=O)[C@H](Cc2c[nH]cn2)NC(=O)[C@H](CCC(=O)O)NC(=O)CNC(=O)[C@H](Cc2c[nH]c3ccccc23)NC(=O)[C@H](CC(=O)O)NC(=O)[C@H](CCC(N)=O)NC(=O)[C@H](Cc2c[nH]c3ccccc23)NC(=O)[C@H]([C@@H](C)CC)NC1=O` [Compound 94] (Ac-ICIWQDWGEHRCTEGEK([AEEA-AEEA-γGlu-C16 diacid])-NH2; disulfide 2-12), the concentration for half-maximal inhibition (IC50) was below 500 nM. For the compound `CC[C@H](C)[C@H](NC(=O)[C@H](C)NC(=O)[C@H](CO)NC(=O)CNC(=O)[C@H](CCC(=O)O)NC(C)=O)C(=O)N[C@H]1CSSC[C@@H](C(=O)N[C@H](C(=O)N[C@@H](CCC(=O)O)C(=O)NCC(=O)N[C@@H](CCCCNC(=O)CC[C@H](NC(=O)CCCCCCCCCCCCCCC(=O)O)C(=O)O)C(N)=O)[C@@H](C)O)NC(=O)[C@H](CCCNC(=N)N)NC(=O)[C@H](Cc2c[nH]cn2)NC(=O)[C@H](CCC(=O)O)NC(=O)CNC(=O)[C@H](Cc2c[nH]c3ccccc23)NC(=O)[C@H](CC(=O)O)NC(=O)[C@H](CCC(N)=O)NC(=O)[C@H](Cc2c[nH]c3ccccc23)NC(=O)[C@H]([C@@H](C)CC)NC1=O` [Compound 101] (Ac-EGSAICIWQDWGEHRCTEGK([γGlu-C16 diacid])-NH2; disulfide 6-16), the IC50 was below 500 nM. Still for that read-out and setting: the same measure for `CC[C@H](C)[C@H](NC(C)=O)C(=O)N[C@H]1CSSC[C@@H](C(=O)N[C@H](C(=O)N[C@@H](CCC(=O)O)C(=O)NCC(=O)N[C@@H](CCC(=O)O)C(=O)N[C@@H](CCCCNC(=O)COCCOCCNC(=O)COCCOCCNC(=O)CC[C@H](NC(=O)CCCCCCCCCCCCCCCCC(=O)O)C(=O)O)C(N)=O)[C@@H](C)O)NC(=O)[C@H](CCCNC(=N)N)NC(=O)[C@H](Cc2c[nH]cn2)NC(=O)[C@H](CCC(=O)O)NC(=O)CNC(=O)[C@H](Cc2c[nH]c3ccccc23)NC(=O)[C@H](CC(=O)O)NC(=O)[C@H](CCC(N)=O)NC(=O)[C@H](Cc2c[nH]c3ccccc23)NC(=O)[C@H]([C@@H](C)CC)NC1=O` [Compound 97] (Ac-ICIWQDWGEHRCTEGEK([AEEA-AEEA-γGlu-C18 diacid])-NH2; disulfide 2-12): below 250 nM; for `CC[C@H](C)[C@@H]1NC(=O)[C@@H](NC(=O)[C@H](Cc2ccccc2)NC(=O)[C@H](CCC(=O)O)NC(=O)[C@H](CO)NC(C)=O)CSSC[C@@H](C(=O)N(C)CC(=O)N[C@@H](CCC(=O)O)C(=O)NCC(=O)N[C@@H](CCC(=O)O)C(=O)NCCOCCOCC(=O)NCCOCCOCC(=O)N[C@@H](CCCCNC(=O)CC[C@H](NC(=O)CNC(=O)CC[C@H](NC(=O)CCCCCCCCCCCCCCCCC(=O)O)C(=O)O)C(=O)O)C(N)=O)NC(=O)[C@H](CCCNC(=N)N)NC(=O)[C@H](Cc2c[nH]cn2)NC(=O)[C@H](CCC(=O)O)NC(=O)CNC(=O)[C@H](Cc2c[nH]c3ccccc23)NC(=O)[C@H](CC(=O)O)NC(=O)[C@H](CCC(N)=O)NC(=O)[C@H](Cc2cn(C)c3ccccc23)NC1=O` [Compound 123] (Ac-SEFCI[Trp(1-Me)]QDWGEHRC[Sar]EGE[AEEA][AEEA]K([γGlu-Gly-γGlu-C18 diacid])-NH2; disulfide 4-14): below 100 nM; for `CC[C@H](C)[C@H](NC(C)=O)C(=O)N[C@H]1CSSC[C@@H](C(=O)N[C@H](C(N)=O)[C@@H](C)O)NC(=O)[C@H](CCCNC(=N)N)NC(=O)[C@H](Cc2c[nH]cn2)NC(=O)[C@H](CC(=O)O)NC(=O)CNC(=O)[C@H](Cc2c[nH]c3ccccc23)NC(=O)[C@H](CC(=O)O)NC(=O)[C@H](CCC(N)=O)NC(=O)[C@H](Cc2c[nH]c3ccccc23)NC(=O)[C@H]([C@@H](C)CC)NC1=O` [Compound 17] (Ac-ICIWQDWGDHRCT-NH2; disulfide 2-12): below 100 nM.

`CC[C@H](C)[C@@H]1NC(=O)[C@@H](NC(=O)[C@H](Cc2ccc(O)cc2)NC(=O)[C@H](C)NC(=O)[C@H](CO)NC(=O)CNC(=O)[C@H](CCC(=O)O)NC(C)=O)CSSC[C@@H](C(=O)N(C)CC(=O)N[C@@H](CCC(=O)O)C(N)=O)NC(=O)[C@H](CCCNC(=N)N)NC(=O)[C@H](Cc2c[nH]cn2)NC(=O)[C@H](CCC(=O)O)NC(=O)CNC(=O)[C@H](Cc2c[nH]c3ccccc23)NC(=O)[C@H](CCC(=O)O)NC(=O)[C@H](CCC(N)=O)NC(=O)[C@H](Cc2cn(C)c3ccccc23)NC1=O` [Compound 70] (Ac-EGSAYCI[Trp(1-Me)]QEWGEHRC[Sar]E-NH2; disulfide 6-16): the concentration for half-maximal inhibition (IC50) is below 100 nM. Same read-out and setting: the same measure for `CC[C@H](C)[C@H](NC(C)=O)C(=O)N[C@H]1CSSC[C@@H](C(=O)N[C@H](C(N)=O)[C@@H](C)O)NC(=O)[C@H](CCCNC(=N)N)NC(=O)[C@H](Cc2c[nH]cn2)NC(=O)[C@H](CCC(=O)O)NC(=O)CNC(=O)[C@H](Cc2c[nH]c3ccccc23)NC(=O)[C@H](CC(=O)O)NC(=O)[C@H](CCC(N)=O)NC(=O)[C@H](Cc2c[nH]c3ccccc23)NC(=O)[C@H]([C@@H](C)CC)NC1=O` [Compound 2] (Ac-ICIWQDWGEHRCT-NH2; disulfide 2-12): below 100 nM.

On to `CC[C@H](C)[C@H](NC(C)=O)C(=O)N[C@H]1CSSC[C@@H](C(=O)N[C@H](C(=O)N[C@@H](CCC(=O)O)C(=O)NCC(=O)N[C@@H](CCCCNC(=O)CC[C@H](NC(=O)CCCCCCCCCCCCCCC(=O)O)C(=O)O)C(N)=O)[C@@H](C)O)NC(=O)[C@H](CCCNC(=N)N)NC(=O)[C@H](Cc2c[nH]cn2)NC(=O)[C@H](CCC(=O)O)NC(=O)CNC(=O)[C@H](Cc2c[nH]c3ccccc23)NC(=O)[C@H](CC(=O)O)NC(=O)[C@H](CCC(N)=O)NC(=O)[C@H](Cc2c[nH]c3ccccc23)NC(=O)[C@H]([C@@H](C)CC)NC1=O` [Compound 92] (Ac-ICIWQDWGEHRCTEGK([γGlu-C16 diacid])-NH2; disulfide 2-12), for which the IC50 is below 1000 nM.

Turning to `CC[C@H](C)[C@H](NC(C)=O)C(=O)N[C@H]1CSSC[C@@H](C(=O)N[C@H](C(=O)N[C@@H](CCC(=O)O)C(=O)NCC(=O)N[C@@H](CCCCNC(=O)COCCOCCNC(=O)COCCOCCNC(=O)CC[C@H](NC(=O)CCCCCCCCCCCCCCCCC(=O)O)C(=O)O)C(N)=O)[C@@H](C)O)NC(=O)[C@H](CCCNC(=N)N)NC(=O)[C@H](Cc2c[nH]cn2)NC(=O)[C@H](CCC(=O)O)NC(=O)CNC(=O)[C@H](Cc2c[nH]c3ccccc23)NC(=O)[C@H](CC(=O)O)NC(=O)[C@H](CCC(N)=O)NC(=O)[C@H](Cc2c[nH]c3ccccc23)NC(=O)[C@H]([C@@H](C)CC)NC1=O` [Compound 96] (Ac-ICIWQDWGEHRCTEGK([AEEA-AEEA-γGlu-C18 diacid])-NH2; disulfide 2-12), the half-inhibitory concentration (IC50) is below 1000 nM.

Staying with this test, now noted: human serum, sensitized sheep red blood cells; Table 4, valine 3 vs isoleucine 3 pairs; read-out: CP hemolysis IC50.
Turning to `CC[C@H](C)[C@H](NC(=O)[C@H](C)NC(=O)[C@H](CO)NC(=O)CNC(=O)[C@H](CCC(=O)O)NC(C)=O)C(=O)N[C@H]1CSSC[C@@H](C(=O)N(C)CC(=O)N[C@@H](CCC(=O)O)C(N)=O)NC(=O)[C@H](CCCNC(=N)N)NC(=O)[C@H](Cc2c[nH]cn2)NC(=O)[C@H](CCC(=O)O)NC(=O)CNC(=O)[C@H](Cc2c[nH]c3ccccc23)NC(=O)[C@H](CC(=O)O)NC(=O)[C@H](CCC(N)=O)NC(=O)[C@H](Cc2c[nH]c3ccccc23)NC(=O)[C@H](C(C)C)NC1=O` [H, reference compound] (Ac-EGSAICVWQDWGEHRC[Sar]E-NH2; disulfide 6-16), the IC50 was 330 nM. In the case of `CC[C@H](C)[C@H](NC(C)=O)C(=O)N[C@H]1CSSC[C@@H](C(=O)N[C@H](C(N)=O)[C@@H](C)O)NC(=O)[C@H](CCCNC(=N)N)NC(=O)[C@H](Cc2c[nH]cn2)NC(=O)[C@H](CCC(=O)O)NC(=O)CNC(=O)[C@H](Cc2c[nH]c3ccccc23)NC(=O)[C@H](CC(=O)O)NC(=O)[C@H](CCC(N)=O)NC(=O)[C@H](Cc2c[nH]c3ccccc23)NC(=O)[C@H]([C@@H](C)CC)NC1=O` [Compound 2] (Ac-ICIWQDWGEHRCT-NH2; disulfide 2-12), the IC50 amounted to 94 nM.

The values are drawn from patent publication US11965039B2, “Compstatin analogues and their medical uses” (priority 2018, dated 2024).
